These compounds were tested against T1, HCV polymerase (NS5B570n-Con1) (Hepatitis C virus genotype 1b, UniProt Q9WMX2) (assay: HCV NS5B RNA polymerase activity assay). Details: IC50 NS5B polymerase assay, Table I.
T1 construct: contains a 21 amino acid deletion at the C-terminus relative to the full-length HCV polymerase; 6-histidine (N); made in house; host or cells: E. coli BL21 (DE) pLysS
Format: biochemical, HCV Con1 strain
Experimental: The enzymatic activity of HCV polymerase (NS5B570n-Con1) was measured as the incorporation of radiolabeled nucleotide monophosphates into acid insoluble RNA products. Unincorporated radiolabeled substrate was removed by filtration and scintillant was added to the washed and dried filter plate containing radiolabeled RNA product. The amount of RNA product generated by NS5B570-Con1 at the end of the reaction was directly proportional to the amount of light emitted by the scintillant.
The N-terminal 6-histidine tagged HCV polymerase, derived from HCV Con1 strain, genotype 1b (NS5B570n-Con1) contains a 21 amino acid deletion at the C-terminus relative to the full-length HCV polymerase and was purified from E. coli strain BL21 (DE) pLysS. The construct, containing the coding sequence of HCV NS5B Con1 (GenBank accession number AJ242654) was inserted into the plasmid construct pETI 7b, downstream of a T7 promoter expression cassette and transformed into E. coli. A single colony was grown overnight as a starter culture and later used inoculate 10 L of LB media supplemented with 100 μg/mL ampicillin at 37° C. Protein expression was induced by the addition of 0.25 mM isopropyl-β-D-thiogalactopyranoside (IPTG) when optical density at […] of the culture was between 0.6 and 0.8 and cells were harvested after 16 to 18 h at 30° C. NS5B570n-Con1 was purified to homogeneity using a three-step protocol including subsequent column chromatography on Ni-NTA, SP-Sepharose HP and Superdex 75 resins.
Each 50 μl enzymatic reaction contained 20 nM RNA template derived from the complementary sequence of the Internal Ribosome Entry Site (cIRES), 20 nM NS5B570n-Con1 enzyme, 0.5 μCi of tritiated UTP (Perkin Elmer catalog no. TRK-412; specific activity: 30 to 60 Ci/mmol; stock solution concentration from 7.5×10^-5 M to 20.6×10^-6 M), 1 μM each ATP, CTP, and GTP, 40 mM Tris-HCl pH 8.0, 40 mM NaCl, 4 mM DTT (dithiothreitol), 4 mM MgCl2, and 5 μl of compound serial diluted in DMSO. Reaction mixtures were assembled in 96-well filter plates (cat #MADVN0B, Millipore Co.) and incubated for 2 h at 30° C. Reactions were stopped by addition of 10% final (v/v) trichloroacetic acid and incubated for 40 min at 4° C. Reactions were filtered, washed with 8 reaction volumes of 10% (v/v) trichloroacetic acetic acid, 4 reaction volumes of 70% (v/v) ethanol, air dried, and 25 μl of scintillant (Microscint 20, Perkin-Elmer) was added to each reaction well.
The amount of light emitted from the scintillant was converted to counts per minute (CPM) on a Topcount® plate reader (Perkin-Elmer, Energy Range: Low, Efficiency Mode Normal, Count Time: 1 min, Background Subtract: none, Cross talk reduction: Off).
Data was analyzed in Excel® (Microsoft®) and ActivityBase® (idbsg). The reaction in the absence of enzyme was used to determine the background signal, which was subtracted from the enzymatic reactions. Positive control reactions were performed in the absence of compound, from which the background corrected activity was set as 100% polymerase activity. All data was expressed as a percentage of the positive control. The compound concentration at which the enzyme-catalyzed rate of RNA synthesis was reduced by 50% (IC50) was calculated by fitting
[formula] equation (t) to the data.where “Y” corresponds to the relative enzyme activity (in %), “% Min” is the residual relative activity at saturating compound concentration, “% Max” is the relative maximum enzymatic activity, “X” corresponds to the compound concentration, and “S” is the Hill coefficient (or slope).

| Structure (SMILES) | IC50 [nM] |
| --- | --- |
| CNC(=O)c1c(-c2ccc(Nc3ccc(F)cc3)cc2)oc2cc(N(CCO)S(C)(=O)=O)c(OC)cc12 [Compound I-2] | 100 |
| CNC(=O)c1c(-c2ccc(Nc3ccc(Cl)cc3)cc2)oc2cc(N(CCO)S(C)(=O)=O)c(OC)cc12 [Compound I-3] | 214 |
| CNC(=O)c1c(-c2ccc(Oc3ccccc3)cc2)oc2cc(N(CCO)S(C)(=O)=O)c(OC)cc12 [Compound I-4, 6-[(2-Hydroxy-ethyl)-methanesulfonyl-amino]-5-methoxy-2-(4-phenoxy-phenyl)-benzofuran-3-carboxylic acid methylamide] | 62 |
| CNC(=O)c1c(-c2ccc(Nc3ccccc3F)cc2)oc2cc(N(CCO)S(C)(=O)=O)c(OC)cc12 [Compound I-5] | 34 |
| CNC(=O)c1c(-c2ccc(Nc3cccc(OC)c3)cc2)oc2cc(N(CCO)S(C)(=O)=O)c(OC)cc12 [Compound I-7] | 136 |
| CNC(=O)c1c(-c2ccc(Oc3ccc(F)cc3)cc2)oc2cc(N(CCO)S(C)(=O)=O)c(OC)cc12 [Compound I-8] | 57 |
| CNC(=O)c1c(-c2ccc(Oc3ccccc3F)cc2)oc2cc(N(CCO)S(C)(=O)=O)c(OC)cc12 [Compound I-9] | 85 |
| CNC(=O)c1c(-c2ccc(Nc3ccc(F)c(F)c3)cc2)oc2cc(N(CCO)S(C)(=O)=O)c(OC)cc12 [Compound I-10] | 65 |
| CNC(=O)c1c(-c2ccc(Nc3ccc(C(F)(F)F)cc3)cc2)oc2cc(N(CCO)S(C)(=O)=O)c(OC)cc12 [Compound I-11] | 1950 |
| CNC(=O)c1c(-c2ccc(Nc3cccc(C#N)c3)cc2)oc2cc(N(CCO)S(C)(=O)=O)c(OC)cc12 [Compound I-12] | 298 |
| CNC(=O)c1c(-c2ccc(Nc3ccc(C#N)cc3)cc2)oc2cc(N(CCO)S(C)(=O)=O)c(OC)cc12 [Compound I-13] | 1840 |
| CNC(=O)c1c(-c2ccc(Nc3ccc(F)cc3F)cc2)oc2cc(N(CCO)S(C)(=O)=O)c(OC)cc12 [Compound I-14] | 24 |
| CNC(=O)c1c(-c2ccc(Nc3ccc(F)c(Cl)c3)cc2)oc2cc(N(CCO)S(C)(=O)=O)c(OC)cc12 [Compound I-15] | 82 |
| CNC(=O)c1c(-c2ccc(Nc3cc(F)cc(F)c3)cc2)oc2cc(N(CCO)S(C)(=O)=O)c(OC)cc12 [Compound I-16] | 172 |
| CCN(c1cc2oc(-c3ccc(Nc4ccc(F)cc4)cc3)c(C(=O)NC)c2cc1OC)S(C)(=O)=O [Compound I-17] | 81 |
| CCN(c1cc2oc(-c3ccc(Nc4ccccc4F)cc3)c(C(=O)NC)c2cc1OC)S(C)(=O)=O [Compound I-18] | 5 |
| CNC(=O)c1c(-c2ccc(Nc3ccc(C)cc3)cc2)oc2cc(N(CCO)S(C)(=O)=O)c(OC)cc12 [Compound I-20] | 92 |
| CNC(=O)c1c(-c2ccc(Nc3cccc(F)c3F)cc2)oc2cc(N(CCO)S(C)(=O)=O)c(OC)cc12 [Compound I-21] | 59 |
| CNC(=O)c1c(-c2ccc(Oc3cccc(F)c3F)cc2)oc2cc(N(CCO)S(C)(=O)=O)c(OC)cc12 [Compound I-22] | 55 |
| CCN(c1cc2oc(-c3ccc(Oc4ccccc4F)cc3)c(C(=O)NC)c2cc1OC)S(C)(=O)=O [Compound I-23] | 52 |
| CCN(c1cc2oc(-c3ccc(Oc4ccc(F)cc4)cc3)c(C(=O)NC)c2cc1OC)S(C)(=O)=O [Compound I-24] | 130 |
| CNC(=O)c1c(-c2ccc(Nc3c(F)cccc3F)cc2)oc2cc(N(CCO)S(C)(=O)=O)c(OC)cc12 [Compound I-25] | 123 |
| CNC(=O)c1c(-c2ccc(Oc3cccc(F)c3)cc2)oc2cc(N(CCO)S(C)(=O)=O)c(OC(C)C)cc12 [Compound I-26] | 82 |
| CNC(=O)c1c(-c2ccc(Oc3ccc(Cl)cc3)cc2)oc2cc(N(CCO)S(C)(=O)=O)c(OC(C)C)cc12 [Compound I-27] | 70 |

| Structure (SMILES) | IC50 [nM] |
| --- | --- |
| CNC(=O)c1c(-c2ccc(Nc3ccccc3)cc2)oc2cc(N(CCO)S(C)(=O)=O)c(OC(C)C)cc12 [Compound I-28, 6-[(2-Hydroxy-ethyl)-methanesulfonyl-amino]-5-isopropoxy-2-(4-phenylamino-phenyl)-benzofuran-3-carboxylic acid methylamide] | 42 |
| CNC(=O)c1c(-c2ccc(Nc3cccc(F)c3)cc2)oc2cc(N(CCO)S(C)(=O)=O)c(OC(C)C)cc12 [Compound I-29] | 94 |
| CNC(=O)c1c(-c2ccc(Nc3ccc(Cl)cc3)cc2)oc2cc(N(CCO)S(C)(=O)=O)c(OC(C)C)cc12 [Compound I-30] | 815 |
| CNC(=O)c1c(-c2ccc(Nc3ccc(F)cc3)cc2)oc2cc(N(CCO)S(C)(=O)=O)c(OC(C)C)cc12 [Compound I-31] | 92 |
| CNC(=O)c1c(-c2ccc(Nc3ccccc3F)cc2)oc2cc(N(CCO)S(C)(=O)=O)c(OC(C)C)cc12 [Compound I-34] | 64 |
| CNC(=O)c1c(-c2ccc(Oc3ccc(F)cc3)cc2)oc2cc(N(C)S(C)(=O)=O)c(OC)cc12 [Compound I-35] | 51 |
| CNC(=O)c1c(-c2ccc(Oc3ccccc3F)cc2)oc2cc(N(C)S(C)(=O)=O)c(OC)cc12 [Compound I-36] | 48 |
| CNC(=O)c1c(-c2ccc(Oc3cccc(Cl)c3)cc2)oc2cc(N(CCO)S(C)(=O)=O)c(OC)cc12 [Compound I-38] | 50 |
| CNC(=O)c1c(-c2ccc(Oc3ccc(F)cc3F)cc2)oc2cc(N(CCO)S(C)(=O)=O)c(OC(C)C)cc12 [Compound I-39] | 195 |
| CCN(c1cc2oc(-c3ccc(Oc4ccc(F)cc4)cc3)c(C(=O)NC)c2cc1C1CC1)S(C)(=O)=O [Compound I-42] | 143 |
| CNC(=O)c1c(-c2ccc(Oc3ccc(F)cc3)cc2)oc2cc(NS(C)(=O)=O)c(OC)cc12 [Compound I-43] | 238 |
| CNC(=O)c1c(-c2ccc(Oc3ccccc3Cl)cc2)oc2cc(N(CCO)S(C)(=O)=O)c(OC)cc12 [Compound I-44] | 82 |
| CNC(=O)c1c(-c2ccc(Oc3ccc(F)c(F)c3)cc2)oc2cc(N(CCO)S(C)(=O)=O)c(OC)cc12 [Compound I-45] | 48 |
| CNC(=O)c1c(-c2ccc(Oc3cccc(Cl)c3)cc2)oc2cc(N(CCO)S(C)(=O)=O)c(OC(C)C)cc12 [Compound I-46] | 51 |
| CNC(=O)c1c(-c2ccc(Oc3cccc(C#N)c3)cc2)oc2cc(N(CCO)S(C)(=O)=O)c(OC)cc12 [Compound I-47] | 338 |
| CNC(=O)c1c(-c2ccc(Oc3ccc(C#N)cc3)cc2)oc2cc(N(CCO)S(C)(=O)=O)c(OC)cc12 [Compound I-48] | 1070 |
| CNC(=O)c1c(-c2ccc(Oc3ccccc3Cl)cc2)oc2cc(N(CCO)S(C)(=O)=O)c(OC(C)C)cc12 [Compound I-49] | 143 |
| CNC(=O)c1c(-c2ccc(Oc3ccc(F)c(F)c3)cc2)oc2cc(N(CCO)S(C)(=O)=O)c(OC(C)C)cc12 [Compound I-50] | 261 |
| CCc1cc2c(C(=O)NC)c(-c3ccc(Oc4ccc(F)cc4)cc3)oc2cc1N(CCO)S(C)(=O)=O [Compound I-51, 5-Ethyl-2-[4-(4-fluoro-phenoxy)-phenyl]-6-[(2-hydroxy-ethyl)-methanesulfonyl-amino]-benzofuran-3-carboxylic acid methylamide] | 88 |
| CCc1cc2c(C(=O)NC)c(-c3ccc(Oc4ccc(F)cc4)cc3)oc2cc1N(C)S(C)(=O)=O [Compound I-52] | 128 |
| CNC(=O)c1c(-c2ccc(Oc3ccc(F)cc3)cc2)oc2cc(N(CCN)S(C)(=O)=O)c(OC)cc12 [Compound I-53] | 250 |
| CNC(=O)c1c(-c2ccc(Oc3ccc(F)cc3)cc2)oc2cc(N(CCN)C(C)=O)c(OC)cc12 [Compound I-54] | 1240 |
| CNC(=O)c1c(-c2ccc(Oc3ccc(F)cc3)cc2)oc2cc(N(CCO)S(C)(=O)=O)c(C)cc12 [Compound I-55] | 44 |

From patent US8071797B2 (priority 2008, dated 2011)
